# Reference: article PMC8386742, “Discovery of N-aryl sulphonamide-quinazoline derivatives as anti-gastric cancer agents in vitro and in vivo via activating the Hippo signalling pathway” (Journal of Enzyme Inhibition and Medicinal Chemistry, 2021)
# Like-named read-outs stand apart in the source and are kept apart here.
# Tests used:
# MGC-803 cells [1] = conditions: 48 h, cited from earlier work
# SGC-7901 cells = assay: MTT antiproliferative assay, SGC-7901 gastric cancer cells; type: cell-based; conditions: exposure for 48 h
# Experimental: (§1) Furthermore, MGC-803 cells were more sensitive to the compounds than HCT-116, PC-3 cells MCF-7 cells. Moreover, we chose two other common gastric cancer cell lines (HGC-27 and SGC-7901) and another two normal cells GES-1 and HUEVC cells to examine for the inhibitory activity of compound 9i.
# (§2) Cell lines used were cultured in humidified incubator in a humidified atmosphere of 5% CO2 and 95% air. The RPMI-1640 medium was supplemented with 10% foetal bovine serum, penicillin (100 U/ml) and streptomycin (0.1 mg/ml).
# (§3) Cell lines were seeded into 96-well plates and incubated for 24 h. Then cells were treated with different concentrations of compounds. And after another 48 h, MTT reagent (20 μL per well) was added to each well and then incubated at 37 °C for 4 h. After the suspension was discarded, formazan was then dissolved with DMSO. Absorbencies of formazan solution were measured at 490 nm. The IC50 values of tested compounds were calculated by SPSS version 17.0.
# GES-1 cells = assay: MTT antiproliferative assay, GES-1 normal gastric epithelial cells; type: cell-based; conditions: MTT, exposure for 48 h, non-cancer cell line
# Source text: as §1
# Since compound 9i presented high potency against cancer cells and MGC-803 cells was more sensitive to compound 9i, compound 9i, MGC-803, another two gastric cancer cells SGC-7901, HGC-27, and GES-1(normal gastric epithelial cells) were used for further detection. As shown in Figures 3(A,B), compound 9i inhibited three gastric cancer cell lines in the dose and time-dependent manners. The inhibition ratios of compound 9i against three gastric cancer cells were all above 50% after 48 h in the high dosage group. Moreover, MGC-803 and SGC-7901 cell lines were more sensitive and compound 9i inhibited over 65% cell viability with high dose treatment for 48 h.
# as §2, §3
# PC-3 cells = assay: MTT antiproliferative assay, PC-3 cells; type: cell-based, human
# Experimental: (§4) The in vitro antiproliferative activities of new target compounds 6a–6g, 9a–9i, 10a–10j, 11a–11j, and 14a–14d were evaluated against four human cancer cell lines (MGC-803, PC-3, HCT-116, and MCF-7) using MTT assay and 5-FU as a positive drug. The following Tables 1–[4] depicted the results of in vitro antiproliferative activity.
# as §2, §3
# HCT-116 cells = assay: MTT antiproliferative assay, HCT-116 cells; type: cell-based, human; conditions: exposure for 48 h
# Experimental: as §4, §2, §3
# MCF-7 cells = assay: MTT antiproliferative assay, MCF-7 cells; type: cell-based, human; conditions: exposure for 48 h
# Experimental: as §4, §2, §3
# HUEVC cells = assay: MTT antiproliferative assay, HUEVC normal cells; type: cell-based; conditions: exposure for 48 h, non-cancer cell line
# Experimental: as §1, §2, §3
# HGC-27 cells = assay: MTT antiproliferative assay, HGC-27 gastric cancer cells; type: cell-based; conditions: MTT, exposure for 48 h
# Experimental: as §1, §2, §3
# MGC-803 cells [2] = assay: MTT antiproliferative assay, MGC-803 cells; type: cell-based, human; conditions: Homo sapiens, MGC-803, 48 h, exposure for 48 h
# Experimental: as §4, §2, §3
# [3] = Homo sapiens, PC-3, exposure for 48 h
SMILES,IC50 (PC-3 cells; [3]) [µM],IC50 (MGC-803 cells [2]) [µM],"IC50 (HCT-116 cells; Homo sapiens, HCT-116, 48 h) [µM]","IC50 (MCF-7 cells; Homo sapiens, MCF7, 48 h) [µM]",melting point [°C],further results
COc1ccc(CN(C(=O)CSc2nc3ccccc3[nH]2)c2cc(OC)c(OC)c(OC)c2)cc1 [Compound 1],,,,,,IC50 (MGC-803 cells [1]; previously reported compound 1 ref 31): 1.23 µM
COc1cc(N(Cc2nc3ccccc3[nH]2)S(=O)(=O)c2ccc(C)cc2)cc(OC)c1OC [Compound 2],,,,,,IC50 (MGC-803 cells [1]; previously reported compound 2 ref 32): 1.02 µM
"O=c1[nH]cc(F)c(=O)[nH]1 [Compound 5-Fu, reference compound]",,,,,,IC50 (SGC-7901 cells): 3.88 µM; IC50 (GES-1 cells): 10.2 µM; IC50 (PC-3 cells; exposure for 48 h): 17.1 ± 1.42 µM; IC50 (HCT-116 cells): 14.4 ± 1.73 µM; IC50 (MCF-7 cells): 12.1 ± 1.28 µM; IC50 (HUEVC cells): 18.5 µM; IC50 (HGC-27 cells): 4.94 µM
"COc1cc(N(Cc2nc(C)c3ccccc3n2)C(=O)c2ccccc2Cl)cc(OC)c1OC [Compound 11d, 2-Chloro-N-((4-methylquinazolin-2-yl)methyl)-N-(3,4,5-trimethoxyphenyl) benzamide]",> 40,> 40,> 40,> 40,190 to 191,
"COc1cc(N(Cc2nc(C)c3ccccc3n2)C(=O)c2ccc(C(C)(C)C)cc2)cc(OC)c1OC [Compound 11g, 4-(Tert-butyl)-N-((4-methylquinazolin-2-yl)methyl)-N-(3,4,5-trimethoxyphenyl) benzamide]",> 40,> 40,> 40,> 40,117 to 118,
"COc1ccc(S(=O)(=O)N(Cc2nc(C)c3ccccc3n2)c2ccccc2)cc1 [Compound 14a, 4-Methoxy-N-((4-methylquinazolin-2-yl)methyl)-N-phenylbenzene-sulphonamide]",> 50,44.6 ± 1.41,46.9 ± 1.84,> 50,85 to 86,
"COc1ccc(S(=O)(=O)N(Cc2ccc(Cl)cc2)c2cc(OC)c(OC)c(OC)c2)cc1 [Compound 9b, N-(4-chlorobenzyl)-4-methoxy-N-(3,4,5-trimethoxyphenyl) benzene-sulphonamide]",36.1 ± 0.01,19.2 ± 1.07,23 ± 5.25,23.4 ± 1.53,172 to 173,
"COc1ccc(S(=O)(=O)N(Cc2ccc(C)cc2)c2cc(OC)c(OC)c(OC)c2)cc1 [Compound 9d, 4-Methoxy-N-(4-methylbenzyl)-N-(3,4,5-trimethoxyphenyl) benzene-sulphonamide]",15.6 ± 1.57,5.83 ± 1.75,11.9 ± 2.26,41.8 ± 0.43,164 to 165,
"COc1cc(N(Cc2nc(C)c3ccccc3n2)S(=O)(=O)c2ccccc2Cl)cc(OC)c1OC [Compound 10d, 2-Chloro-N-((4-methylquinazolin-2-yl)methyl)-N-(3,4,5-trimethoxyphenyl) benzene-sulfonamide]",> 50,> 50,18.7 ± 1.27,22.1 ± 0.31,183 to 184,
"COc1ccc(CN(c2cc(OC)c(OC)c(OC)c2)S(=O)(=O)c2ccc(Cl)cc2)cc1 [Compound 6b, 4-Chloro-N-(4-methoxybenzyl)-N-(3,4,5-trimethoxyphenyl) benzene-sulphonamide]",> 40,> 40,> 40,> 40,166 to 167,
"COc1cc(N(Cc2nc(C)c3ccccc3n2)C(=O)c2c(C)cc(C)cc2C)cc(OC)c1OC [Compound 11f, 2,4,6-Trimethyl-N-((4-methylquinazolin-2-yl)methyl)-N-(3,4,5-trimethoxyphenyl) benzamide]",> 40,32.8 ± 2.12,28.5 ± 2.64,> 40,209 to 210,
"COc1cc(N(Cc2nc(C)c3ccccc3n2)S(=O)(=O)c2cccs2)cc(OC)c1OC [Compound 10i, N-((4-Methylquinazolin-2-yl)methyl)-N-(3,4,5-trimethoxyphenyl)thiophene-2-sulphonamide]",27.8 ± 2.02,16.8 ± 1.42,20.4 ± 1.92,30.2 ± 1.81,151 to 152,
"COc1ccc(S(=O)(=O)N(Cc2nc(C)c3ccccc3n2)c2cc(OC)c(OC)c(OC)c2)cc1OC [Compound 10h, 3,4-Dimethoxy-N-((4-methylquinazolin-2-yl)methyl)-N-(3,4,5-trimethoxyphenyl)benzene-sulfonamide]",36.6 ± 0.34,14.2 ± 1.03,22.9 ± 1.34,18.5 ± 0.81,129 to 130,
